What was measured:
[1] = target: T1, DDB1DB/DCAF15 and RBM39 R1R2 complex (Homo sapiens, UniProt Q14498+Q66K64); experiment: DCAF15 RBM39 Complex Formation Assay (FRET); type: binding; conditions: FRET ratio Em 665/Em 615, incubated overnight at 4° C.
T1 construct: Amino acids 150 to 331 of RBM39 were cloned into pGEX4T3; GST (from vector pGEX4T3); TEV cleavage site (N); made in house; host or cells: DDB1DB/His-DCAF15: baculovirus/Sf9 co-expression; RBM39 R1R2: E. coli (pGEX4T3)
Procedure, shortened: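 Ternary complex formation read by TR-FRET (Em 665/615, excitation 340 nm) after overnight incubation at 4° C of 20 nM baculovirus DDB1DB/His-DCAF15 and 50 nM E. coli RBM39 RRM1-RRM2 FLAG fragment with 14-point, 3-fold compound dilutions from 1 μM; EC50 from 4-parameter fit.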

[2] = tested on: HCT116 human colorectal carcinoma cells; experiment: CellTiter-Glo Luminescent Cell Viability Assay; type: cell-based; conditions: HCT-116, 72 h, 3 days
Procedure, shortened: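 HCT116 cells were exposed for 3 days to compound in triplicate at final concentrations of 5 to 0.0002 […] (1:3 dilutions). Viability was read by CellTiter-Glo luminescence, and IC50 values were calculated.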

T1 sequence (Q66K64 whole entry, the tested form may be a part): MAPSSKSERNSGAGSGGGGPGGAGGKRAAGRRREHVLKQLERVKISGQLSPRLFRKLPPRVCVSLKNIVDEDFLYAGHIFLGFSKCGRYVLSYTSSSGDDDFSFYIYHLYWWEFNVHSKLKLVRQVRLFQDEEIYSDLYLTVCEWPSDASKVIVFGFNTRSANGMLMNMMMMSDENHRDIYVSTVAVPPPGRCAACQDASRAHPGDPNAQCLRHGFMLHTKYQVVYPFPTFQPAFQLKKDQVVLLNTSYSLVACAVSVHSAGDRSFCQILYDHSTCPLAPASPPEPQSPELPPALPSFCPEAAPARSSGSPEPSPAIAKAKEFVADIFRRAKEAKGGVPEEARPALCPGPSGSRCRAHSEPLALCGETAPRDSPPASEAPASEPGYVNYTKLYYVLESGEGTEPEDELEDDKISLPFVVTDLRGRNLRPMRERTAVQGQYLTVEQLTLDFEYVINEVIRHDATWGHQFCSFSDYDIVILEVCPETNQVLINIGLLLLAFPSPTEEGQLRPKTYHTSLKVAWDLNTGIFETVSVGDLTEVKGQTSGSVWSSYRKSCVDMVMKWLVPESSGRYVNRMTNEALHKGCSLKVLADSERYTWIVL
T1 sequence (Q14498 150-331): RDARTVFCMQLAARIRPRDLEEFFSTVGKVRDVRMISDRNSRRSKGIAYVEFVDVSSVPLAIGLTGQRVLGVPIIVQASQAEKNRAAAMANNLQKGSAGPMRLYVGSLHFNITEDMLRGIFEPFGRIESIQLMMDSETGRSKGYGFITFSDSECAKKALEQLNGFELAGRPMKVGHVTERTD
T1 sequence (Q16531 with tags, fused parts or gaps DEL396-708 partner): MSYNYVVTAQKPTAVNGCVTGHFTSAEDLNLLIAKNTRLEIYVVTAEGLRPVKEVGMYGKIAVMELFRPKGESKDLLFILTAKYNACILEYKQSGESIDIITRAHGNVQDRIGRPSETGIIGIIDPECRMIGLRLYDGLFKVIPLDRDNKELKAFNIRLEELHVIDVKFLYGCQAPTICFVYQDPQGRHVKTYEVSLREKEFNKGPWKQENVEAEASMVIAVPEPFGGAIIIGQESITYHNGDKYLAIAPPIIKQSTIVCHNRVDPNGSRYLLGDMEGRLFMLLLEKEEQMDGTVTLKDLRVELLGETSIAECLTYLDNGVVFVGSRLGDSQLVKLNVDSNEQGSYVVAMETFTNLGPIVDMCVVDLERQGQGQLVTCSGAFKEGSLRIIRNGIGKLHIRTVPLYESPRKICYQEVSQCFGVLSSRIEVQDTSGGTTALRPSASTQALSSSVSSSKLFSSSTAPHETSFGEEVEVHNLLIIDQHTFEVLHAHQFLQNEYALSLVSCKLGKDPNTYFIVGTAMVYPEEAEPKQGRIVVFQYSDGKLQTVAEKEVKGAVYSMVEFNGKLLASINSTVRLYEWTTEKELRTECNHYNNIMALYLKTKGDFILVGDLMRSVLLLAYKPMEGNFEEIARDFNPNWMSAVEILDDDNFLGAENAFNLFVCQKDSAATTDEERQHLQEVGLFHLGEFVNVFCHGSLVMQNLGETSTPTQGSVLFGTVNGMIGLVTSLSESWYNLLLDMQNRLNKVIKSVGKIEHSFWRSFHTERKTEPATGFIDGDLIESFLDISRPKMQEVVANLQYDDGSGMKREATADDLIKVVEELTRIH

Row | SMILES | IC50 [1] | EC50 [2]
1 | Cc1ccc(NS(=O)(=O)c2cnn(CCCO)c2)c2[nH]cc(C#N)c12 [Compound 210, N-(3-cyano-4-methyl-1H-indol-7-yl)-1-(3-hydroxypropyl)pyrazole-4-sulfonamide] | < 250 nM | 250 to 1000 nM
2 | O=S(=O)(Nc1cccc2c(Cl)c[nH]c12)c1cnn(CC(F)F)c1 [Compound 7, N-(3-chloro-1H-indol-7-yl)-1-(2,2-difluoroethyl)pyrazole-4-sulfonamide] | < 250 nM | 250 to 1000 nM
3 | O=S(=O)(Nc1cccc2c(Cl)c[nH]c12)c1cnn(CF)c1 [Compound 56, N-(3-chloro-1H-indol-7-yl)-1-(fluoromethyl)pyrazole-4-sulfonamide] | < 250 nM | 250 to 1000 nM
4 | CC(C)(O)Cn1ncc(S(=O)(=O)Nc2ccc(F)c3c(C#N)c[nH]c23)c1Cl [Compound 280, 5-chloro-N-(3-cyano-4-fluoro-1H-indol-7-yl)-1-(2-hydroxy-2-methyl-propyl)pyrazole-4-sulfonamide] | < 250 nM | > 1000 nM
5 | N#Cc1c[nH]c2c(NS(=O)(=O)c3cnn(CC(F)(F)F)c3)ccc(Cl)c12 [Compound 120, N-(4-chloro-3-cyano-1H-indol-7-yl)-1-(2,2,2-trifluoroethyl)pyrazole-4-sulfonamide] | < 250 nM | < 250 nM
6 | CC(CO)(CO)n1cc(S(=O)(=O)Nc2ccc(Cl)c3c(Cl)c[nH]c23)cn1 [Compound 173, N-(3,4-dichloro-1H-indol-7-yl)-1-[2-hydroxy-1-(hydroxymethyl)-1-methyl-ethyl]pyrazole-4-sulfonamide] | < 250 nM | < 250 nM
7 | CC1(Cn2cc(S(=O)(=O)Nc3cccc4c(Cl)c[nH]c34)cn2)CS(=O)(=O)C1 [Compound 45, N-(3-chloro-1H-indol-7-yl)-1-[(3-methyl-1,1-dioxo-thietan-3-yl)methyl]pyrazole-4-sulfonamide] | < 250 nM | 250 to 1000 nM
8 | O=S(=O)(Nc1cccc2c(Cl)c[nH]c12)c1cnn(C2COC2)c1 [Compound 40, N-(3-chloro-1H-indol-7-yl)-1-(oxetan-3-yl)pyrazole-4-sulfonamide] | < 250 nM | 250 to 1000 nM
9 | CC1(Cn2cc(S(=O)(=O)Nc3cccc4c(Cl)c[nH]c34)cn2)COC1 [Compound 28, N-(3-chloro-1H-indol-7-yl)-1-[(3-methyloxetan-3-yl)methyl]pyrazole-4-sulfonamide] | < 250 nM | 250 to 1000 nM
10 | CCn1cc(S(=O)(=O)Nc2ccc(Cl)c3c(C#N)c[nH]c23)cn1 [Compound 127, N-(4-chloro-3-cyano-1H-indol-7-yl)-1-ethyl-pyrazole-4-sulfonamide] | < 250 nM | 250 to 1000 nM
11 | Cc1ccc(NS(=O)(=O)c2cnn(C)c2)c2[nH]cc(Cl)c12 [Compound 75, N-(3-chloro-4-methyl-1H-indol-7-yl)-1-methyl-pyrazole-4-sulfonamide] | < 250 nM | < 250 nM
12 | Cc1ccc(NS(=O)(=O)c2cnn(C3(C)COC3)c2F)c2[nH]cc(C#N)c12 [Compound 128, N-(3-cyano-4-methyl-1H-indol-7-yl)-5-fluoro-1-(3-methyloxetan-3-yl)pyrazole-4-sulfonamide] | < 250 nM | < 250 nM
13 | O=S(=O)(Nc1ccc(Cl)c2c(Cl)c[nH]c12)c1cnn(C2COC2)c1 [Compound 143, N-(3,4-dichloro-1H-indol-7-yl)-1-(oxetan-3-yl)pyrazole-4-sulfonamide] | < 250 nM | < 250 nM
14 | Cc1ccc(NS(=O)(=O)c2cnn(C[C@H](N)C(F)(F)F)c2)c2[nH]cc(C#N)c12 [Compound 249, 1-[(2S)-2-amino-3,3,3-trifluoro-propyl]-N-(3-cyano-4-methyl-1H-indol-7-yl)pyrazole-4-sulfonamide] | < 250 nM | 250 to 1000 nM
15 | Cc1ccc(NS(=O)(=O)c2cnn(CC(C)(C)O)c2Cl)c2[nH]cc(C#N)c12 [Compound 276, 5-chloro-N-(3-cyano-4-methyl-1H-indol-7-yl)-1-(2-hydroxy-2-methyl-propyl)pyrazole-4-sulfonamide] | < 250 nM | 250 to 1000 nM
16 | COCCOCCn1cc(S(=O)(=O)Nc2cccc3c(Cl)c[nH]c23)cn1 [Compound 23, N-(3-chloro-1H-indol-7-yl)-1-[2-(2-methoxyethoxy)ethyl]pyrazole-4-sulfonamide] | < 250 nM | > 1000 nM
17 | Cc1ccc(NS(=O)(=O)c2cnn(CCS(C)(=O)=O)c2)c2[nH]cc(C#N)c12 [Compound 67, N-(3-cyano-4-methyl-1H-indol-7-yl)-1-(2-methylsulfonylethyl)pyrazole-4-sulfonamide] | < 250 nM | 250 to 1000 nM
18 | CC(C)(C)n1cc(S(=O)(=O)Nc2cccc3c(Cl)c[nH]c23)cn1 [Compound 95, 1-tert-butyl-N-(3-chloro-1H-indol-7-yl)pyrazole-4-sulfonamide] | < 250 nM | 250 to 1000 nM
19 | Cn1cc(S(=O)(=O)Nc2cccc3c(C#N)c[nH]c23)cn1 [Compound 46, N-(3-cyano-1H-indol-7-yl)-1-methyl-pyrazole-4-sulfonamide] | < 250 nM | 250 to 1000 nM
20 | Cc1ccc(NS(=O)(=O)c2cn[nH]c2)c2[nH]cc(C#N)c12 [Compound 62, N-(3-cyano-4-methyl-1H-indol-7-yl)-1H-pyrazole-4-sulfonamide] | < 250 nM | 250 to 1000 nM
21 | O=S(=O)(Nc1cccc2c(Cl)c[nH]c12)c1cnn(CC2CC2)c1 [Compound 51, N-(3-chloro-1H-indol-7-yl)-1-(cyclopropylmethyl)pyrazole-4-sulfonamide] | < 250 nM | 250 to 1000 nM
22 | Cc1ccc(NS(=O)(=O)c2cn(C)nc2F)c2[nH]cc(C#N)c12 [Compound 148, N-(3-cyano-4-methyl-1H-indol-7-yl)-3-fluoro-1-methyl-pyrazole-4-sulfonamide] | < 250 nM | 250 to 1000 nM
23 | C[C@H](CO)n1ncc(S(=O)(=O)Nc2ccc(Cl)c3c(C#N)c[nH]c23)c1N [Compound 306, 5-amino-N-(4-chloro-3-cyano-1H-indol-7-yl)-1-[(1R)-2-hydroxy-1-methyl-ethyl]pyrazole-4-sulfonamide] | < 250 nM | 250 to 1000 nM
24 | COC1CC(n2cc(S(=O)(=O)Nc3ccc(Cl)c4c(C#N)c[nH]c34)cn2)C1 (stereo not drawn) [Compound 189, N-(4-chloro-3-cyano-1H-indol-7-yl)-1-(3-methoxycyclobutyl)pyrazole-4-sulfonamide] | < 250 nM | 250 to 1000 nM
25 | CCn1ncc(S(=O)(=O)Nc2ccc(F)c3c(C#N)c[nH]c23)c1N [Compound 272, 5-amino-N-(3-cyano-4-fluoro-1H-indol-7-yl)-1-ethyl-pyrazole-4-sulfonamide] | < 250 nM | 250 to 1000 nM
26 | Cc1ccc(NS(=O)(=O)c2cnn([C@H](C)CO)c2)c2[nH]cc(C#N)c12 [Compound 207, (R)—N-(3-cyano-4-methyl-1H-indol-7-yl)-1-(1-hydroxypropan-2-yl)-1H-pyrazole-4-sulfonamide] | < 250 nM | < 250 nM
27 | Cn1ncc(S(=O)(=O)Nc2cccc3c(C#N)c[nH]c23)c1N [Compound 299, 5-amino-N-(3-cyano-1H-indol-7-yl)-1-methyl-pyrazole-4-sulfonamide] | < 250 nM | 250 to 1000 nM
